# Laboratory results reported in patent US20260216174A1, “TREATMENT OF ER+ BREAST CANCER COMPRISING HOMOLOGOUS RECOMBINATION DEFICIENCY USING PARG INHIBITOR” (IDEAYA BIOSCIENCES, INC., priority 2023, published 2026).
# How the values were obtained:
# Assay type in all cases: cell-based
# BT-20 = assay: Cellular antiproliferative response, Assay 1 (nuclear counts); settings: Homo sapiens; BT-20, Wild Type, Assay 1, 5 population doublings; read-out: Log10 (IC50) (converted)
# Description: (§1) Compound A was tested in a cell line panel. Cell lines were obtained from several different sources such as the American Type Culture Collection, Korean Cell Line Bank and Japanese Collection of Research Bioresources Cell Bank and cultured in the media as recommended by the source cell banks. All cell lines were grown at 37° C. at 5% CO2 and were passaged once or twice weekly with 0.25% Trypsin-EDTA (Fisher Scientific #25200056) and re-plated in 75 cm^2 culture flasks (Corning #3814).
# (§2) The cell lines were plated in 96 well plates (Corning #3904) at density of 1000 cells/well. DMSO dissolved Compound A was then added using the TECAN liquid dispenser to generate a 9-point dose curve with a 3-fold dilution and 10 μM starting, top concentration. After 5 population doublings, the cell lines were treated with 5 μM of Vybrant DyeCycle Green (Life Technologies #V35004), incubated for 60 minutes and imaged using the Incucyte® S3 system to determine the nuclear counts. For all cell lines, the nuclear counts were normalized to the DMSO treated wells and the IC50 was determined using the standard four parametric dose response equation in GraphPad Prism Software.
# Hs 578T = assay: as above; settings: Homo sapiens, Wild Type, Assay 1, 5 population doublings, read-out: Log10 (IC50) (converted)
# Description: as §1, §2
# SK-BR-3 = assay: as above; settings: Homo sapiens; SK-BR-3, Wild Type, Assay 1, 5 population doublings; read-out: Log10 (IC50) (converted)
# Description: as §1, §2
# MDA-MB-231 = assay: as above; settings: Homo sapiens; MDA-MB-231, Wild Type, Assay 1, 5 population doublings; read-out: Log10 (IC50) (converted)
# Description: as §1, §2
# CAMA-1 = assay: as above; settings: Homo sapiens; CAMA-1, Wild Type, Assay 1, 5 population doublings; read-out: Log10 (IC50) (converted)
# Description: as §1, §2
# KPL-1 = assay: as above; settings: KPL-1, Wild Type, Assay 1, 5 population doublings; read-out: Log10 (IC50) (converted)
# Description: as §1, §2
# T-47D = assay: as above; settings: Homo sapiens, T47D, Wild Type, Assay 1, 5 population doublings, read-out: Log10 (IC50) (converted)
# Description: as §1, §2
# BT-549 = assay: as above; settings: Homo sapiens; BT-549, Wild Type, Assay 1, 5 population doublings; read-out: Log10 (IC50) (converted)
# Description: as §1, §2
# MDA-MB-453 = assay: as above; settings: Homo sapiens; MDA-MB-453, Wild Type, Assay 1, 5 population doublings; read-out: Log10 (IC50) (converted)
# Description: as §1, §2
# MDA-MB-415 = assay: as above; settings: Homo sapiens; MDA-MB-415, Wild Type, Assay 1, 5 population doublings; read-out: Log10 (IC50) (converted)
# Description: as §1, §2
# MCF7 = assay: as above; settings: Homo sapiens; MCF7, Wild Type, Assay 1, 5 population doublings; read-out: Log10 (IC50) (converted)
# Description: as §1, §2
# BT-474 = assay: Cellular antiproliferative response, Assay 2 (nuclear dye intensity); settings: Homo sapiens, 240 h; BT-474, HR mutant BRCA2, Assay 2, 10-day incubation; read-out: Log10 (IC50) (converted)
# Description: Compound A was tested in a cell line panel. Cell lines were grown in RPMI 1640, 10% FBS, 2 mM L-alanyl-L-glutamine, 1 mM Na pyruvate, or a special medium. Cells were seeded into 384-well plates and incubated in a humidified atmosphere of 5% CO2 at 37° C. The following day, Compound A was added by serial dilution in half-log steps from the highest test concentration of 30 μM and assayed over ten concentrations. A time zero untreated cell plate was also generated. At seven days post-seeding, the growth media were replaced, and the plates were re-dosed with the test compound. After a 10-day incubation period, cells were fixed and stained with a fluorescent nuclear dye. Automated fluorescence microscopy was carried out using a Molecular Devices ImageXpress Micro XL high-content imager, and images were collected with a 4× objective. 16-bit TIFF images were acquired and analyzed with MetaXpress 5.1.0.41 software.
# Cell proliferation effects of Compound A was measured using the fluorescent intensity of the incorporated nuclear dye as a percent of the control (POC), where POC=(Ix/I0)×100. Ix=nuclear intensity at concentration x and I0=average nuclear intensity of the untreated vehicle wells. Cellular IC50 was calculated using nonlinear regression to a sigmoidal single-site dose response model. Curve fitting, calculations, and report generation was performed using a custom data reduction engine and MathIQ based software (AIM).
structure (smiles),measurement,setting,value
"C[C@H]1CN(c2cc(S(=O)(=O)NC3(C)CC3)cc3c2cnn3-c2nnc(C(F)F)s2)C[C@H](C)N1 [Compound A, 1-(5-(difluoromethyl)-1,3,4-thiadiazol-2-yl)-4-((3S,5S)-3,5-dimethylpiperazin-1-yl)-N-(1-methylcyclopropyl)-1H-indazole-6-sulfonamide]",IC50,BT-20,2410 nM
same,IC50,Hs 578T,3000 nM
same,IC50,SK-BR-3,131 nM
same,IC50,MDA-MB-231,850 nM
same,IC50,CAMA-1,844 nM
same,IC50,KPL-1,431 nM
same,IC50,T-47D,3090 nM
same,IC50,BT-549,983 nM
same,IC50,MDA-MB-453,2020 nM
same,IC50,MDA-MB-415,2830 nM
same,IC50,MCF7,2380 nM
same,IC50,BT-474,847 nM
